Results on twelve compounds are retold here after patent US12638448B2, “Compositions, methods, and kits for detection of lipolytic activity” (priority 2019, dated 2026).

For series [1] the following is noted: cited from earlier work.
The nature of series [2]: 4MuO auto-hydrolysis (no enzyme), 4Mu fluorescence. Format: physicochemical.
In series [3] the target is T1, Porcine pancreas lipase (PPL) (Sus scrofa, UniProt P00591).
T1 sequence (P00591 1-450): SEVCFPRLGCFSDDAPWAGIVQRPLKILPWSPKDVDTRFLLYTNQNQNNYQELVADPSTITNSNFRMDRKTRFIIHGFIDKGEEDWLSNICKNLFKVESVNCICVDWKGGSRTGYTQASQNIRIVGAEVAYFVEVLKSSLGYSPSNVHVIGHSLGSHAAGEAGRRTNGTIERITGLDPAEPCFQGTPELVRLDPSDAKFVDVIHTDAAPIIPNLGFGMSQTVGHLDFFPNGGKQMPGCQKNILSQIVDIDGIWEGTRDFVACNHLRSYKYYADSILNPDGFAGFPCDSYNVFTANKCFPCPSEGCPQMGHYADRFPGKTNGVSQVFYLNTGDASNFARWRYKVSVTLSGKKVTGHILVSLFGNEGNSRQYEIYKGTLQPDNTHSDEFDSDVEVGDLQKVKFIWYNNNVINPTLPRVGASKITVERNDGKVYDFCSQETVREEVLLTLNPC
The series is described as follows: 4MuO lipase assay with porcine pancreas lipase (Examples 1A-7). To be noted: for concentration at which product inhibition of lipase activity was observed: 800 nM PPL.

Series [4] deals with T2, porcine pancreatic lipase (PPL) (Sus scrofa, UniProt P00591).
T2 construct: purchased Sigma; host or cells: porcine pancreas
T2 sequence (P00591 1-450): T1 sequence (P00591 1-450)
The series is described as follows: 4MuO lipase assay with HCMB, sample containing PPL (Examples 1B-6B, 10). In kind it is biochemical.

The test system of the next series is LipC12 lipase. To be noted: as solvent; cited from earlier work.
Series [5] relates to cell culture harvest fluid (CCHF) containing a mixture of lipases. Format: biochemical, CHO cell line. To be noted: negative controls, 30 min pre-incubation, 10 mg/mL mAb1, 0.02% PS80, 0.5% CCHF.
Where [6] appears, read: as organic solvent of the assay.
[7] abbreviates: 10.4 mM TRIS pH 8.1, 500 nM PPL, 22 hours.

SMILES strings stand for the structures. Where “and” joins values, the source holds several entries; their conditions need not be identical. Equal entries are not always repeated.

Turning to `Cc1cc(=O)oc2cc(O)ccc12` [4Mu, 4-methylumbelliferone], the pKa result in series [1] is “approximately 7.7”.

As for `CCCCCCCC/C=C\CCCCCCCC(=O)Oc1ccc2c(C)cc(=O)oc2c1` [4MuO, 4-methylumbelliferyl oleate, reference compound], the “factor by which autohydrolysis (AH) decreased” value in series [2] (lowering the pH from 8 to 6 (TRIS / BIS-TRIS)) is recorded as ~5.

In the case of `OCCN(CCO)C(CO)(CO)CO` [BIS-TRIS], in series [2] (pH 6), the “Auto-Hydrolysis (AH)” value was 0.16 µM and 0.13 µM and 0.11 µM.

Take `[Ca+2].[Cl-].[Cl-]` [CaCl2, calcium chloride]: the “Enzymatic Hydrolysis (EH − AH)” value in series [3] (0.104 mM CaCl2, 500 nM PPL) came to 0.66 µM; in series [3] (1.04 mM CaCl2, 500 nM PPL), 0.73 µM; in series [3] (10.4 mM CaCl2, 500 nM PPL), 0.69 µM. Moreover, the “Total Hydrolysis (AH + EH)” value turned out to be 0.81 µM in series [3] (0.104 mM CaCl2, 500 nM PPL); 0.90 µM in series [3] (1.04 mM CaCl2, 500 nM PPL); 0.85 µM in series [3] (10.4 mM CaCl2, 500 nM PPL). Further, the “PPL activity (in words)” value in series [4] (highest concentration tested (52 mM CaCl2 in HCMB)) is listed as “slightly decreased”. Also, the “Auto-Hydrolysis (AH)” value in series [2] (0.104 mM CaCl2) came out at 0.15 µM; in series [2] (1.04 mM CaCl2), 0.16 µM; in series [2] (10.4 mM CaCl2), 0.16 µM.

For `C[S+](C)[O-]` [DMSO, dimethyl sulfoxide], the “Auto-Hydrolysis (AH)” value in series [2] (setting [6]) is 0.14 µM.

With `CC(C)O` [IPA, isopropanol], in series [2] (setting [6]), the “Auto-Hydrolysis (AH)” value stood at 0.09 µM.

As to `CCCCCCCCCCCC(=O)O` [Lauric Acid, lauric acid, reference compound], the “concentration at which product inhibition of lipase activity was observed” value in series [3] is reported as “above 8.5 μM”. The entries for the “Auto-Hydrolysis (AH)” value in series [2] (8.5 μM Lauric Acid (0.001% PS20 theoretically fully degraded)) and in series [2] (850 μM Lauric Acid (0.1% PS20 theoretically fully degraded)) were 0.15 µM and 0.08 µM, respectively.

`CO` [MeOH, methanol]: the “factor of increase of LipC12 lipase activity” value with LipC12 lipase was > 10. The “Auto-Hydrolysis (AH)” value in series [2] (setting [6]) stood at 0.13 µM.

As to `[Cl-].[Na+]` [NaCl, sodium chloride], the “Enzymatic Hydrolysis (EH − AH)” value in series [3] (40 mM NaCl, 500 nM PPL) was 0.57 µM; in series [3] (120 mM NaCl, 500 nM PPL), 0.62 µM; in series [3] (360 mM NaCl, 500 nM PPL), 0.59 µM. The “Total Hydrolysis (AH + EH)” value in series [3] (40 mM NaCl, 500 nM PPL) is 0.82 µM; in series [3] (120 mM NaCl, 500 nM PPL) it was 0.91 µM; in series [3] (360 mM NaCl, 500 nM PPL) it was 0.86 µM. Moreover, in series [4] (highest concentration tested (1800 mM NaCl in HCMB)), the “PPL activity (in words)” value is on record as “slightly decreased”. In addition, the “Auto-Hydrolysis (AH)” value in series [2] (40 mM NaCl) turned out to be 0.25 µM; in series [2] (120 mM NaCl), 0.29 µM; in series [2] (360 mM NaCl), 0.28 µM.

Turning to `CCCCCCCC/C=C\CCCCCCCC(=O)O` [Oleic Acid, oleic acid, reference compound], the “concentration at which product inhibition of lipase activity was observed” value in series [3] amounted to 780 µM. Moreover, the “Auto-Hydrolysis (AH)” value in series [2] (7.8 μM Oleic Acid (0.001% PS80 theoretically fully degraded)) was found to be 0.11 µM; in series [2] (780 μM Oleic Acid (0.1% PS80 theoretically fully degraded)), 0.06 µM.

For `NC(CO)(CO)CO` [TRIS], in series [3] (setting [7]), the “Enzymatic Hydrolysis (EH − AH)” value stood at 1.29 µM and the “Total Hydrolysis (AH + EH)” value amounted to 1.51 µM. Moreover, in series [2] (10.4 mM TRIS pH 8.1, 22 hours), the “Auto-Hydrolysis (AH)” value is 0.22 µM.

`CCCCCCCCCCC[C@@H](C[C@@H]1OC(=O)[C@H]1CCCCCC)OC(=O)[C@H](CC(C)C)NC=O` [orlistat, (S)-2-formylamino-4-methyl-pentanoic acid (S)-1-[[(2S,3S)-3-hexyl-4-oxo-2-oxetanyl]methyl]-dodecyl ester, reference compound]: in series [5], the “CCHF lipase activity in protein-containing formulation (in words)” value is listed as “inhibited”. Besides, the “lipolytic activity (in words)” value in series [3] (pre-treatment (30 minutes) at 25 μM, 500 nM PPL) is “completely abolished”. Moreover, the inhibition at 25 µM in series [4] (25 μM, 30 min pre-incubation, 0.0335 mg/mL PPL, read-out: reduction of enzyme activity in pre-treated sample compared to co-addition of substrate and inhibitor) is ~50%. The “PPL activity in protein-containing formulation (in words)” value in series [4] (negative controls, 30 min pre-incubation, 10 mg/mL mAb1, 0.02% PS80, 0.025 mg/mL PPL) is recorded as “inhibited”.
